Values of other authors as cited in US12016850B2, “Modified release pharmaceutical formulations comprising deferiprone” (Chiesi Farmaceutici S.p.A., priority 2022, dated 2024).

Settings: background statement, species not given

- half-life: 2 to 3 h
SMILES: Cc1c(O)c(=O)ccn1C [Deferiprone, 3-hydroxy-1,2-dimethylpyridin-4-one]
